From patent US20080305100A1, “Activated Protein C Inhibits Undesirable Effects of Plasminogen Activator in the Brain” (priority 2004, published 2008)

Experiments:
[1] = test system: AIF; test: Western blot of AIF in nuclear extracts of NMDA/tPA treated neurons; assay type: cell-based, mouse; settings: for AIF nuclear translocation in the presence of tPA (NMDA/tPA injury): effect of APC or caspase inhibitor
Description: (§1) Primary neuronal cultures were prepared from fetal C57BU6J mice as we have previously described^23. Cultures were maintained in serum-free NEUROBASAL medium plus B27 supplement (Gibco BRL, Rockville, Md.) in a humidified 5% CO2 incubator at 37° C. for 14 days before 3 hr to 24 hr treatment with tPA (20 μg/ml) alone, NMDA (25 μM)/5 μM glycine, or tPA plus NMDA. Ac-DEVD-CHO (50 μM), z-IETD-fmk (20 μM), or z-LEHD-fmk (5 μM) was applied 3 hr prior to tPA/NMDA treatment. Mouse recombinant APC (20 nM) was added 30 min before tPA/NMDA treatment.
(§2) Whole cellular extracts, nuclear proteins, or cell membrane fractions were prepared as we have previously described^23. The relative abundance of each protein was determined by scanning densitometry using β-actin as an internal control. Data from multiple Western blots (n=3-5) were averaged for statistical analysis.

[2] = test system: human BEC; test: tPA/hypoxia in human BEC: cell injury by LDH release; assay type: cell-based; settings: for LDH release into the medium from ischemic BEC: tPA 20 μg/ml plus hypoxia/aglycemia
Description: (§3) Primary human BEC were isolated from rapid autopsies from neurologically normal young individuals after trauma and cultured as we have previously described^20. Cells were maintained in serum-free Dulbeco's Modified Eagle Medium and exposed for 1 hr to 16 hr to tPA (20 μg/ml) under normoxic conditions (20% oxygen, 5 mM glucose), hypoxia (<2% oxygen, no glucose), or to tPA plus hypoxia. Hypoxia was induced using an anaerobic chamber (Form a Scientific, Holbrook, N.Y.)^20. The levels of O2 were monitored by O2 Fyrite (Form a Scientific). z-IETD-fmk (10 μM) or z-LEHD-fmk (15 μM) was applied 2 hr prior to tPA/hypoxia treatment. Human APC (10 nM to 600 nM) was added at the time of tPA/hypoxia treatment. Caspase-3, -8 or -9 activity was determined in the presence of 400 nM APC.
(§4) Cell injury in BEC was detected by the release of LDH (LDH assay, Sigma). The Hoechst dye (Hoechst 33,342, Sigma) and in situ terminal deoxynucleotidyl transferase-mediated digoxigenin-dUTP nick-end labeling (TUNEL) (Phoenix Flow Systems, San Diego, Calif.) assays were performed on acetone-fixed BEC or paraformaldexyde-fixed neurons. Images were visualized using a Nikon TE2000-U microscope.

[3] = test system: human BEC; test: tPA/hypoxia in human BEC: apoptosis (TUNEL); assay type: cell-based
Description: as §3, §4

[4] = test system: caspase-9; test: Caspase-9 activity in BEC lysate; assay type: cell-based, human; settings: tPA 20 μg/ml plus hypoxia
Description: as §3
(§5) BEC or cortical neuron lysate was incubated at 37° C. with caspase-3 (DEVD-pNA), caspase-8 (IETD-pNA) (ApoAlert caspase assay kit; Clontech, Palo Alto, Calif.), or caspase-9 (Ac-LEHD-pNA; Chemicon; Temecula, Calif.) substrate. Substrate hydrolysis was determined as absorbance change at 405 nm in a microplate reader^23. Enzymatic activity was expressed in arbitrary units per mg of protein.

[5] = test system: caspase-8; test: Caspase-8 activity in BEC lysate; assay type: cell-based, human; settings: tPA plus hypoxia, at 1 hr; remained elevated over 16 hr vs hypoxia alone
Description: as §3, §5

[6] = test system: caspase-3; test: Caspase-3 activity in BEC lysate; assay type: cell-based, human; settings: for increase in caspase-3 activity compared to hypoxia alone: tPA plus hypoxia; for inhibition in caspase-3 activation in hypoxic BEC: absence of tPA; for inhibition in caspase-3 activation in hypoxic BEC / inhibition of caspase-3 activation in hypoxic BEC: z-IETD-fmk 10 μM, z-LEHD-fmk 15 μM applied 2 hr prior; for inhibition of caspase-3 activation in hypoxic BEC: presence of tPA
Description: as §3, §5

[7] = test system: mouse cortical neurons; test: tPA/NMDA-induced apoptosis in neurons; assay type: cell-based
Description: as §1, §4

[8] = test system: caspase-9; test: Caspase-9 activity in cortical neuron lysate; assay type: cell-based, mouse
Description: as §1, §5

[9] = test system: caspase-8; test: Caspase-8 activity in cortical neuron lysate; assay type: cell-based, mouse; settings: for tPA-induced increase in caspase-8 activation: tPA/NMDA treated neurons, APC 20 nM, z-IETD-fmk 20 μM, z-LEHD-fmk 5 μM
Description: as §1, §5

[10] = test system: caspase-3; test: Caspase-3 activity in cortical neuron lysate; assay type: cell-based, mouse
Description: as §1, §5

[11] = biological target: T1, NR1 or the NR2A subunit of the NMDA receptor (Mus musculus, UniProt P35436+P35438); test: Western blot of NR1 and NR2A subunits in membrane fractions after tPA; assay type: cell-based; settings: 24 h after treatment with tPA
T1 construct: Western blot analysis of NR1 and NR2A subunits in membrane fractions 24 h after treatment with tPA; endogenous in cells; host or cells: primary cortical neurons from fetal C57BL/6J mice
Description: as §1, §2

[12] = test system: p53, Bax, Bcl-2; test: Western blot of p53, Bcl-2 and Bax in NMDA-treated neurons; assay type: cell-based, mouse; settings: tPA plus NMDA vs NMDA
Description: as §1, §2

[13] = test system: mouse stroke model; test: In vivo stroke model (45 min MCA occlusion/24 hr reperfusion); settings: tPA 10 mg/kg iv
Description: Protocols were approved by the Animal Care Committee at the University of Rochester using National Institutes of Health guidelines. Vehicle, tPA (10 mg/kg, 10% bolus/90% infusion), or tPA plus mouse recombinant APC (0.02 mg/kg to 1 mg/kg, 50% bolus/50% infusion) were administered via the femoral vein using separate intravenous lines and our previously described mouse stroke model^19,20 modified to 45 min MCA occlusion/24 hr reperfusion. tPA was infused during the last 10 min of MCA occlusion and for 20 min into reperfusion. APC was infused either simultaneously with tPA, after tPA infusion, or before tPA infusion. The dose of tPA used here has been frequently used in rodents and is considered to be equivalent to the therapeutic dose in humans^12,13,44,50. CBF was monitored by laser Doppler flowmetry (Transonic Systems)^19. Arterial blood gasses were measured^19. Neurological examinations were performed at 24 hr and scored: no neurological deficit (O), failure to extend left forepaw fully (1), turning to left (2), circling to left (3), unable to walk spontaneously (4), or stroke-related death (5). Neuropathological analysis was performed at 24 hr. Unfixed 1-mm coronal brain slices at the level of optic chiasm were incubated in 2% triphenyltetrazolium chloride in phosphate buffer (pH 7.4). Brain injury, infarct, and edema volumes were determined as previously described^19,20. Fibrin deposition was quantified by Western blotting with anti-fibrin II antibody (1:500, NYB-T2G1; Accurate Chemical Scientific Corp.)^19,20,30 and leukocytes were stained with CD11b antibody (1:250, DAKO Corp.)^19,20. Hemoglobin was determined by a spectrophotometric assay using Drabkin's reagent (Sigma) as we have previously described^19.

[14] = test system: MMP-9; test: MMP gelatin zymography of BEC conditioned medium; assay type: cell-based, human; settings: tPA 20 μg/ml, hypoxic BEC, 4 hr
Description: The conditioned medium from BEC exposed to tPA (20 μg/ml) or hypoxia for 4 hr, in the absence or presence of human APC (50 nM to 1,000 nM), was analyzed by gelatin zymography as previously described^11. […] MMP-9 activity was quantified as fold increase compared with normoxic controls.

Ac-DEVD-CHO
AIF nuclear translocation in the presence of tPA (NMDA/tPA injury) [1]: blocked

tPA: Human recombinant tPA (alteplase, Genentech); in some in vitro studies human recombinant tPA from Sigma
LDH release into the medium from ischemic BEC ([2]; 2 hr, background values in the absence of tPA): 50%
LDH release into the medium from ischemic BEC ([2]; 4 hr, 57% in the absence of tPA): 95%
LDH release from normoxic BEC ([2]; tPA alone, normoxia): did not affect
number of TUNEL-positive hypoxic BEC ([3]; tPA plus hypoxia, 4 hr, 60% for hypoxia alone): 100%
caspase-9 activity in hypoxic BEC relative to hypoxia alone [4]: did not produce a significant increase
activation of caspase-8 in ischemic BEC [5]: early and sharp increase
increase in caspase-3 activity compared to hypoxia alone ([6]; at 4 hr): 2.8 fold
increase in caspase-3 activity compared to hypoxia alone ([6]; within 16 hr): > 3.0 fold
number of apoptotic neurons ([7]; tPA 20 μg/ml, 24 hr after exposure to NMDA, vs NMDA alone): doubles
effect on neuronal cells ([7]; tPA alone, no NMDA): did not affect
caspase-9 activation, tPA/NMDA compared to NMDA alone ([8]; tPA 20 μg/ml plus NMDA 25 μM): did not alter
activation of caspase-9 ([8]; tPA alone, no NMDA): did not affect
caspase-8 in neurons, tPA/NMDA compared to NMDA alone ([9]; tPA 20 μg/ml plus NMDA 25 μM): robust activation
activation of caspase-8 ([9]; tPA alone, no NMDA): did not affect
caspase-3 activation relative to NMDA alone ([10]; tPA 20 μg/ml plus NMDA 25 μM): increased
activation of caspase-3 ([10]; tPA alone, no NMDA): did not affect
increase of nuclear translocation of AIF in the presence of NMDA ([1]; tPA plus NMDA vs NMDA): 50%
proteolytic effect on the NMDA receptor (NR1, NR2A subunit) [11]: failed to cleave
NMDA-mediated increases in p53 and Bax expression, decrease in Bcl-2 expression [12]: did not affect
improvement of post-ischemic cerebral blood flow (CBF) vs vehicle [13]: 35%
increase in the level of hemoglobin in the ischemic hemisphere [13]: greater than 3.0 fold
ischemic brain fibrin deposition [13]: background level
increase of volume of edema compared to controls ([13]; 24 hr reperfusion): 155%
increase of volume of infarction compared to controls ([13]; 24 hr reperfusion): 75%
volume of cerebral injury compared to controls ([13]; 24 hr reperfusion): almost doubled
motor neurological score ([13]; 24 hr, controls 2.3, scale 0-5): 3.5
increase of brain accumulation of leukocytes ([13]; CD11b-positive leukocytes): about 65%
mice with substantial hemorrhage ([13]; MCA stroke model): 6/6
potentiation of hypoxia-induced MMP-9 activation [14]: about 2.0 fold

z-IETD-fmk
tPA-induced apoptosis in ischemic BEC ([3]; discussion summary): abolished
inhibition in caspase-3 activation in hypoxic BEC [6]: less than 15%
inhibition of caspase-3 activation in hypoxic BEC [6]: greater than 95%
tPA-induced apoptosis in NMDA-treated neurons ([7]; discussion summary): abolished
tPA-induced increase in caspase-8 activation [9]: abolished
AIF nuclear translocation in the presence of tPA (NMDA/tPA injury) [1]: blocked

z-LEHD-fmk
inhibition in caspase-3 activation in hypoxic BEC [6]: greater than 85%
inhibition of caspase-3 activation in hypoxic BEC [6]: only slightly inhibited
tPA-induced increase in caspase-8 activation [9]: without effect
reduction of caspase-3 activation in cells treated with NMDA alone ([10]; NMDA alone, no tPA, z-LEHD-fmk 5 μM): greater than 80%
AIF nuclear translocation in the presence of tPA (NMDA/tPA injury) [1]: much less effective
